Measured values taken from patent publication US20100086931A1, “METHOD FOR ASSAYING ACTION OF ANTITUMOR AGENT USING DECREASE IN GENE EXPRESSION LEVEL AS INDEX” (Eisai R&D Management Co., Ltd., priority 2007, published 2010).

System: human colon carcinoma cell strain WiDr
Assay: Microarray analysis (Human Genome U133 plus 2.0 array) of mRNA expression in WiDr cells treated with compound A
Format: cell-based
Conditions: 14 nM, 6 h, ratio to control
Description: Microarray analysis (Human Genome U133 plus 2.0 array: Affymetrix) was carried out using RNA purified from human colon carcinoma cell strain WiDr treated with 2.8 nM and 14 nM of (8E,12E,14E)-7-((4-Cycloheptylpiperazin-1-yl)carbonyl)oxy-3,6,16,21-tetrahydroxy-6,10,12,16,20-pentamethyl-18,19-epoxytricosa-8,12,14-trien-11-olide (hereinafter also referred to as “compound A”) for six hours.
WiDr cells were first suspended in RPMI1640 medium (containing 10% FBS, penicillin, and streptomycin) and seeded in a 10 cm dish (2×10^6 cells/dish). After an overnight culture in an incubator with 5% carbon dioxide gas at 37° C., the medium was changed with medium containing 2.8 nM and 14 nM of compound A or containing vehicle alone. After cultured additional six hours, TRI reagent (SIGMA) was added to cells, and the cells were harvested. RNA was purified in accordance with the protocol of TRI reagent, followed by further purification with RNeasy (QIAGEN). Absorbance at 260 nm was measured to quantify an amount of RNA.
Subsequently, single stranded cDNA synthesis, double stranded cDNA synthesis, biotin-labeled cRNA synthesis, and cRNA fragmentation in order were carried out from 5-10 μg (WiDr 10 μg, PBMC 5 μg) of total RNA from the control cells and the treated cells, by using One-Cycle Target Labeling and Control Reagents (Affymetrix). cRNA probe was used for hybridization with Human Genome U133 Plus 2.0 Array (Affymetrix). The array was then washed and stained, and luminescence intensity was measured by a scanner.
The RMA method was applied to 33 of .cel files obtained in the microarray experiment and log signal intensity at a gene level normalized with log signal intensity at a probe level was obtained. By subtracting the mean between control 1 and control 3 from the mean between log signal intensity 1 and log signal intensity 3 for each case, the log signal intensity was converted into a log signal ratio to the control. A t-test was conducted between each log signal intensity and control, and candidate genes were narrowed down in the basis of a p-value, a log signal ratio, and a signal value. Specifically, genes showing that the P value was 5% or less; the expression level in the untreated (control) is 100 or more by signal value; and the expression level when treated with both 2.8 nM and 14 nM of compound A is, compared to the control, 25% or less, were picked out. The software used is R2.2.1 (http://www.r-project.org/), affy package 1.8.1 (http://www.bioconductor.org).
Genes showing that, by the treatment with compound A, the P value was 5% or less; the expression level in the untreated (control) is 100 or more by signal value; and the expression level when treated with both 2.8 nM and 14 nM of compound A is, compared to the control, 25% or less, and results thereof were shown in Table 1. Probe ID used in Table 1 represents Human Genome U133 Plus 2.0 Array Probeset ID. In Table 1, for each gene evaluated, gene name (Gene Name), abbreviated name (Gene Symbol), accession number (Accession), alias name (Synonym), Probe set number in Human Genome U133 Plus 2.0 Array (Human Genome U133 Plus 2.0 Array Probeset ID), the expression level upon the six-hour treatment with 2.8 nM of E7107 (2.8 nM (6 h)), and the expression level upon the six-hour treatment with 14 nM of E7107 (14 nM (6 h)) were respectively shown.

CCC(O)C(C)C1OC1CC(C)(O)/C=C/C=C(\C)C1OC(=O)CC(O)CCC(C)(O)C(OC(=O)N2CCN(C3CCCCCC3)CC2)/C=C/C1C (stereo not drawn) [E7107, (8E,12E,14E)-7-((4-Cycloheptylpiperazin-1-yl)carbonyl)oxy-3,6,16,21-tetrahydroxy-6,10,12,16,20-pentamethyl-18,19-epoxytricosa-8,12,14-trien-11-olide]
ADPRHL2 mRNA expression level (223097_at): 0.20 | ANGEL2 mRNA expression level (221825_at): 0.17 | ARMC8 mRNA expression level (203486_s_at): 0.12 | ATP2A2 mRNA expression level (212361_s_at): 0.17 | ATP2B1 mRNA expression level (212930_at): 0.10 | ATP6V0A2 mRNA expression level (205704_s_at): 0.15 | BPTF mRNA expression level (232909_s_at): 0.05 | C1orf63 mRNA expression level (209006_s_at): 0.19 | C1orf79 mRNA expression level (223774_at): 0.14 | C1orf82 mRNA expression level (222893_s_at): 0.19 | C5orf28 mRNA expression level (219029_at): 0.05 | C6orf136 mRNA expression level (227455_at): 0.15 | C7orf23 mRNA expression level (204215_at): 0.04 | C7orf36 mRNA expression level (223433_at): 0.15 | C7orf49 mRNA expression level (220949_s_at): 0.23 | C12orf32 mRNA expression level (225837_at): 0.17 | C15orf40 mRNA expression level (1552310_at): 0.19 | C17orf80 mRNA expression level (223351_at): 0.21 | C20orf112 mRNA expression level (225224_at): 0.09 | CARD10 mRNA expression level (210026_s_at): 0.13 | CASC5 mRNA expression level (228323_at): 0.14 | CCDC14 mRNA expression level (225017_at): 0.17 | CCNE2 mRNA expression level (205034_at): 0.05 | CDC6 mRNA expression level (203967_at): 0.08 | CDC7 mRNA expression level (204510_at): 0.13 | CDNA FLJ34214 fis, clone FCBBF3021807 mRNA expression level (227087_at): 0.17 | CLDND1 mRNA expression level (208925_at): 0.09 | CLIP1 mRNA expression level (201975_at): 0.12 | DAPK1 mRNA expression level (203139_at): 0.07 | DNAJC16 mRNA expression level (212908_at): 0.15 | E2F7 mRNA expression level (228033_at): 0.06 | EHBP1 mRNA expression level (212653_s_at): 0.05 | ELL3 mRNA expression level (219518_s_at): 0.20 | ERCC3 mRNA expression level (202176_at): 0.22 | EVI1 mRNA expression level (226420_at): 0.07 | FAM86C mRNA expression level (65585_at): 0.22 | FANCL mRNA expression level (218397_at): 0.21 | FBXL5 mRNA expression level (209004_s_at): 0.05 | FCHO2 mRNA expression level (228220_at): 0.11 | FGF19 mRNA expression level (223761_at): 0.18 | FKSG44 mRNA expression level (227964_at): 0.06 | FLJ20628 mRNA expression level (221229_s_at): 0.25 | FRY mRNA expression level (204072_s_at): 0.10 | Full-length cDNA clone CS0DL007YI24 of B cells (Ramos cell line) mRNA expression level (226648_at): 0.12 | GRHL1 mRNA expression level (222830_at): 0.18 | HDAC4 mRNA expression level (204225_at): 0.21 | INTS7 mRNA expression level (222250_s_at): 0.20 | IREB2 mRNA expression level (225892_at): 0.03 | IXL mRNA expression level (225708_at): 0.14 | JAGN1 mRNA expression level (223104_at): 0.09 | JUB mRNA expression level (225806_at): 0.09 | KCNE3 mRNA expression level (227647_at): 0.16 | KIAA0323 mRNA expression level (212355_at): 0.19 | KIAA0776 mRNA expression level (212633_at): 0.15 | KIAA0859 mRNA expression level (212405_s_at): 0.09 | KIF2C mRNA expression level (211519_s_at): 0.12 | KIF21A mRNA expression level (226003_at): 0.09 | KIN mRNA expression level (205664_at): 0.19 | KLHL12 mRNA expression level (225068_at): 0.11 | LIPG mRNA expression level (219181_at): 0.11 | LOC51315 mRNA expression level (218303_x_at): 0.07 | LOC124512 mRNA expression level (225808_at): 0.16 | MASTL mRNA expression level (228468_at): 0.11 | MCM10 mRNA expression level (220651_s_at): 0.06 | METTL3 mRNA expression level (209265_s_at): 0.19 | METTL4 mRNA expression level (219698_s_at): 0.18 | MKRN1 mRNA expression level (201285_at): 0.22 | MLL2 mRNA expression level (227527_at): 0.10 | MND1 mRNA expression level (223700_at): 0.14 | MYOHD1 mRNA expression level (225947_at): 0.24 | NCOA5 mRNA expression level (225145_at): 0.17 | NIN mRNA expression level (225921_at): 0.21 | NOC3L mRNA expression level (218889_at): 0.15 | NPC1 mRNA expression level (202679_at): 0.20 | NR2C1 mRNA expression level (204791_at): 0.13 | NUPL1 mRNA expression level (223984_s_at): 0.12 | NUPL2 mRNA expression level (204003_s_at): 0.21 | ORC5L mRNA expression level (204957_at): 0.12 | PAXIP1 mRNA expression level (212825_at): 0.08 | PCGF1 mRNA expression level (210023_s_at): 0.18 | PHACTR4 mRNA expression level (226823_at): 0.15 | PHF20L1 mRNA expression level (226942_at): 0.10 | PIK3C3 mRNA expression level (204297_at): 0.22 | PLEKHA5 mRNA expression level (220952_s_at): 0.06 | PMS1 mRNA expression level (213677_s_at): 0.17 | POLD3 mRNA expression level (212836_at): 0.09 | POLR3E mRNA expression level (222490_at): 0.10 | PPM1B mRNA expression level (209296_at): 0.07 | PPWD1 mRNA expression level (213483_at): 0.14 | RAD54B mRNA expression level (219494_at): 0.10 | RBBP6 mRNA expression level (212783_at): 0.12 | RBM17 mRNA expression level (224780_at): 0.13 | RBMS1 mRNA expression level (209868_s_at): 0.11 | REPS1 mRNA expression level (224366_s_at): 0.12 | RFC4 mRNA expression level (204023_at): 0.04 | RIF1 mRNA expression level (226821_at): 0.07 | RPS6KC1 mRNA expression level (218909_at): 0.22 | SFXN1 mRNA expression level (230069_at): 0.06 | SHPRH mRNA expression level (226366_at): 0.08 | SLC17A5 mRNA expression level (223441_at): 0.18 | SLC25A19 mRNA expression level (223222_at): 0.22 | SLC37A1 mRNA expression level (218928_s_at): 0.25 | SMEK2 mRNA expression level (226230_at): 0.14 | SMUG1 mRNA expression level (218685_s_at): 0.24 | STAMBPL1 mRNA expression level (227606_s_at): 0.14 | STXBP3 mRNA expression level (203310_at): 0.14 | SYTL2 mRNA expression level (232914_s_at): 0.24 | TAF4 mRNA expression level (213090_s_at): 0.09 | TMEM177 mRNA expression level (218897_at): 0.22 | TNS3 mRNA expression level (217853_at): 0.07 | TRIM31 mRNA expression level (210159_s_at): 0.21 | TRIP4 mRNA expression level (203732_at): 0.23 | TSEN2 mRNA expression level (219581_at): 0.11 | TTC4 mRNA expression level (46167_at): 0.09 | TUBGCP3 mRNA expression level (203690_at): 0.11 | Transcribed locus mRNA expression level (230098_at): 0.13 | Transcribed locus mRNA expression level (230177_at): 0.22 | Transcribed locus mRNA expression level (235609_at): 0.17 | Transcribed locus, moderately similar to XP_518244.1 mRNA expression level (235046_at): 0.10 | Transcribed locus, strongly similar to NP_002194.1 integrin alpha 2 precursor mRNA expression level (227314_at): 0.12 | Transcribed locus, strongly similar to NP_689873.1 mRNA expression level (228638_at): 0.12 | UNC50 mRNA expression level (203583_at): 0.06 | WBP4 mRNA expression level (203598_s_at): 0.17 | WDR26 mRNA expression level (218107_at): 0.16 | WDR67 mRNA expression level (214061_at): 0.08 | ZC3HAV1L mRNA expression level (228280_at): 0.04 | ZCCHC6 mRNA expression level (220933_s_at): 0.25 | ZKSCAN1 mRNA expression level (214670_at): 0.15 | ZMIZ1 mRNA expression level (212124_at): 0.05 | ZNF518 mRNA expression level (204291_at): 0.12 | mRNA expression level, probeset 228106_at (gene name not given): 0.18 | mRNA expression level, probeset 235436_at (gene name not given): 0.19
